# Tests used:
# PI3K alpha = PI3K alpha (Homo sapiens (Human), UniProt P42336); test: Enzymatic PI3K alpha isoform inhibition (lipid kinase activity, Kinase-Glo luminescence); format: biochemical; settings: Enzymatic assay
# Procedure, shortened: (§1)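 ATP-depletion format: 10 nM PI3K with 5 μg/mL phosphatidylinositol and 2 μM ATP, run to ~50% ATP consumption, then Kinase-Glo added and remaining ATP read by luminescence after 5 min. IC50 from 4-parameter logistic fit, typically over 8 concentrations 10–0.003 μM.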
# PI3K delta = PI3K delta (Homo sapiens (Human), UniProt O00329); test: Enzymatic PI3K delta isoform inhibition (lipid kinase activity, Kinase-Glo luminescence); format: biochemical; settings: Enzymatic assay
# Procedure, shortened: as §1
# Sequence of PI3K delta (O00329 other isoform, or with tags, fused parts or gaps linker GGGGGG): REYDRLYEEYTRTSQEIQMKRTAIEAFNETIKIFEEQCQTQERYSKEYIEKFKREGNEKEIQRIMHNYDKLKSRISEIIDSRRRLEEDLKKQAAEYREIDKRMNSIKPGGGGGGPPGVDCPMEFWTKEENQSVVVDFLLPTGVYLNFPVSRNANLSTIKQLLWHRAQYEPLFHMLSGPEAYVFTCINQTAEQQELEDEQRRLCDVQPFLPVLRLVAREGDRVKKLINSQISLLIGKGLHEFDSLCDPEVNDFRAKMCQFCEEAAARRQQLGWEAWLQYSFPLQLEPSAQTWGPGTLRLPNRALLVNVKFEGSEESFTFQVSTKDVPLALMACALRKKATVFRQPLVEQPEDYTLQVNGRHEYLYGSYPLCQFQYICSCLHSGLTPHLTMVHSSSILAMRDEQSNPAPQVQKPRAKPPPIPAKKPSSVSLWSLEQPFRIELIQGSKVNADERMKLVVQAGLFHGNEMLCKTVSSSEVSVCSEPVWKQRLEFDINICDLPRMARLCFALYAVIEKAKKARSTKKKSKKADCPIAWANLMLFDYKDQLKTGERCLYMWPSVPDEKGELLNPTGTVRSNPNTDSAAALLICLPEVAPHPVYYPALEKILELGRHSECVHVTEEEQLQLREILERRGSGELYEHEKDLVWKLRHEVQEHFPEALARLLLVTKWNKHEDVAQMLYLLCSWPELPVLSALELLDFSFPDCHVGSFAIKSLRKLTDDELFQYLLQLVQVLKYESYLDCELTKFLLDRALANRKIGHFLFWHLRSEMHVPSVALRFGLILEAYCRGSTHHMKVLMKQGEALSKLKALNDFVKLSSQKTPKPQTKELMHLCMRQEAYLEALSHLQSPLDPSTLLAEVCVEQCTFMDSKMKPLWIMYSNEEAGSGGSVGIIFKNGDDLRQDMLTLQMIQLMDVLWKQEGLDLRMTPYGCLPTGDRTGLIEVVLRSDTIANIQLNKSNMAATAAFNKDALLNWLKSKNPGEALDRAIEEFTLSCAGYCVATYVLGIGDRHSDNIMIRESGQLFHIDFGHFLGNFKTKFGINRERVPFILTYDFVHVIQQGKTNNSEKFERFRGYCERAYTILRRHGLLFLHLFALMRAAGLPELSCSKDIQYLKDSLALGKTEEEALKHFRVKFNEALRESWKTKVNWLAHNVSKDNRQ
# Sequence of PI3K alpha (P42336 other isoform, or with tags, fused parts or gaps): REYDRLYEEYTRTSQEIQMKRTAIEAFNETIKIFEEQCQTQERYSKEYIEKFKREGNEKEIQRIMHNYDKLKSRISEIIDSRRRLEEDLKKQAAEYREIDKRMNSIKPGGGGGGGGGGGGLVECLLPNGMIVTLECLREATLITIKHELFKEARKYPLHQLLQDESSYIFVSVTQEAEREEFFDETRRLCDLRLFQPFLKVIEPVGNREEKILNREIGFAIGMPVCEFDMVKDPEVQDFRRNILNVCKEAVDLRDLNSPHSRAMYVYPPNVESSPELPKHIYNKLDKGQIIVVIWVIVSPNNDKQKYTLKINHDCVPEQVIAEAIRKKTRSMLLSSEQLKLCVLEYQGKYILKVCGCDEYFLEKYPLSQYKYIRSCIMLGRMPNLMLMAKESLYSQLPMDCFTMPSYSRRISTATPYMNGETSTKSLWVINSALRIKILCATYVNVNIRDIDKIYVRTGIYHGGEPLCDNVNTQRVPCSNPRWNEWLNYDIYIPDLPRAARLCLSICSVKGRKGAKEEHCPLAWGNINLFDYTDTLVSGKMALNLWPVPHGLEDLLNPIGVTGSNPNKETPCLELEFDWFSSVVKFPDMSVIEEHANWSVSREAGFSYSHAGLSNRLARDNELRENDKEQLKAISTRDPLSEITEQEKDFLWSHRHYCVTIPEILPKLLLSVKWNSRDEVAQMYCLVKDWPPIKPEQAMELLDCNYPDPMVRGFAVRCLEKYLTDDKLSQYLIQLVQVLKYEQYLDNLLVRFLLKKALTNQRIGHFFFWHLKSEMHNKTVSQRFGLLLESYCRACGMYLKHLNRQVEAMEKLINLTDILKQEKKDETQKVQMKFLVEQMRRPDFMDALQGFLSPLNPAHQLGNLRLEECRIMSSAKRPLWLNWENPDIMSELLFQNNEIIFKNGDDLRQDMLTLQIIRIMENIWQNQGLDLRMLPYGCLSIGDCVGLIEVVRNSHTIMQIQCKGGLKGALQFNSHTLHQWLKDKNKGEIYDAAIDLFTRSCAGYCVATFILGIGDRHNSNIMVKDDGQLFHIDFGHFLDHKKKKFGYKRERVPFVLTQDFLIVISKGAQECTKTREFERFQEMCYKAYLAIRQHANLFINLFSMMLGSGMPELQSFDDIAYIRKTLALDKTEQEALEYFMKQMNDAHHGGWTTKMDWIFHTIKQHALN
SMILES,IC50 (PI3K alpha) [µM],IC50 (PI3K delta) [µM]
"CCC(=O)N1CC[C@H](Oc2ccc3c(c2)N(c2ccc(OC)c(S(C)(=O)=O)c2)CCO3)C1 [Example A16, 1-{(S)-3-[4-(3-Methanesulfonyl-4-methoxy-phenyl)-3,4-dihydro-2H-benzo[1,4]oxazin-6-yloxy]-pyrrolidin-1-yl}-propan-1-one]",> 9.1,0.323
"CCC(=O)N1CC[C@H](Oc2ccc3c(c2)N(c2cnc4ccccc4c2)CCO3)C1 [Example A36, 1-[(S)-3-(4-Quinolin-3-yl-3,4-dihydro-2H-benzo[1,4]oxazin-6-yloxy)-pyrrolidin-1-yl]-propan-1-one]",1.27,0.078
"CCC(=O)N1CC[C@H](Oc2ccc3c(c2)N(c2ccc(OC)c(C(F)(F)F)c2)CCO3)C1 [Example A41, 1-{(S)-3-[4-(4-Methoxy-3-trifluoromethyl-phenyl)-3,4-dihydro-2H-benzo[1,4]oxazin-6-yloxy]-pyrrolidin-1-yl}-propan-1-one]",2.79,0.296
"CCC(=O)N1CC[C@H](Oc2ccc3c(c2)N(c2ccc(OC)c(OC)c2)CCO3)C1 [Example A35, 1-{(S)-3-[4-(3,4-Dimethoxy-phenyl)-3,4-dihydro-2H-benzo[1,4]oxazin-6-yloxy]-pyrrolidin-1-yl}-propan-1-one]",5.59,1.42
"COc1ncc(N2CCOc3cnc(O[C@H]4CCN(C(=O)c5cn6ccsc6n5)C4)cc32)cc1C(F)(F)F [Example G1, Imidazo[2,1-b]thiazol-6-yl-{(S)-3-[1-(6-methoxy-5-trifluoromethyl-pyridin-3-yl)-2,3-dihydro-1H-pyrido[3,4-b][1,4]oxazin-7-yloxy]-pyrrolidin-1-yl}-methanone]",0.049,0.017
"COc1ncc(N2CCOc3ccc(O[C@H]4CCN(C(=O)C5CCS(=O)(=O)C5)C4)cc32)cc1C (single isomer, unassigned) [Example B27, (1,1-Dioxo-tetrahydro-1lambda*6*-thiophen-3-yl)-{(S)-3-[4-(6-methoxy-5-methyl-pyridin-3-yl)-3,4-dihydro-2H-benzo[1,4]oxazin-6-yloxy]-pyrrolidin-1-yl}-methanone]",2.51,0.055
"COc1ncc(N2CCOc3ccc(O[C@H]4CCN(C(=O)c5ccno5)C4)cc32)cc1C#N [Example C9, 5-{6-[(S)-1-(Isoxazole-5-carbonyl)-pyrrolidin-3-yloxy]-2,3-dihydro-benzo[1,4]oxazin-4-yl}-2-methoxy-nicotinonitrile]",0.185,0.006
"COc1ncc(N2CCOc3ccc(O[C@H]4CCN(C(=O)C5CCS(=O)(=O)CC5)C4)c(F)c32)cc1C [Example I1, (1,1-Dioxo-hexahydro-1lambda*6*-thiopyran-4-yl)-{(S)-3-[5-fluoro-4-(6-methoxy-5-methyl-pyridin-3-yl)-3,4-dihydro-2H-benzo[1,4]oxazin-6-yloxy]-pyrrolidin-1-yl}-methanone]",0.842,0.018
"COc1ncc(N2CCOc3ccc(O[C@H]4CCN(C(=O)c5cncn5C)C4)cc32)cc1C#N [Example D31, 2-Methoxy-5-{6-[(S)-1-(3-methyl-3H-imidazole-4-carbonyl)-pyrrolidin-3-yloxy]-2,3-dihydro-benzo[1,4]oxazin-4-yl}-nicotinonitrile]",0.135,0.009
"COCC(=O)N1CC[C@H](Oc2cc3c(cn2)OCCN3c2cnc(OC)c(C(F)F)c2)C1 [Example F9, 1-{(S)-3-[1-(5-Difluoromethyl-6-methoxy-pyridin-3-yl)-2,3-dihydro-1H-pyrido[3,4-b][1,4]oxazin-7-yloxy]-pyrrolidin-1-yl}-2-methoxy-ethanone]",0.028,< 0.003
"COc1ncc(N2CCOc3ccc(O[C@H]4CCN(C(=O)c5cn[nH]c5)C4)cc32)cc1C#N [Example C10, 2-Methoxy-5-{6-[(S)-1-(1H-pyrazole-4-carbonyl)-pyrrolidin-3-yloxy]-2,3-dihydro-benzo[1,4]oxazin-4-yl}-nicotinonitrile]",0.147,0.015
"Cc1cc(N2CCOc3ccc(O[C@H]4CCN(C(=O)c5cnco5)C4)cc32)cnc1S(C)(=O)=O [Example B25, {(S)-3-[4-(6-Methanesulfonyl-5-methyl-pyridin-3-yl)-3,4-dihydro-2H-benzo[1,4]oxazin-6-yloxy]-pyrrolidin-1-yl}-oxazol-5-yl-methanone]",0.665,0.04
"COc1ncc(N2CCOc3ccc(O[C@H]4CCN(C(=O)Cc5cn(C)cn5)C4)cc32)cc1C#N [Example D37, 2-Methoxy-5-(6-{(S)-1-[2-(1-methyl-1H-imidazol-4-yl)-acetyl]-pyrrolidin-3-yloxy}-2,3-dihydro-benzo[1,4]oxazin-4-yl)-nicotinonitrile]",0.298,0.127
"COc1ncc(N2CCOc3ccc(O[C@H]4CCN(C(=O)c5cn(C)cn5)C4)cc32)cc1N [T, {(S)-3-[4-(5-Amino-6-methoxy-pyridin-3-yl)-3,4-dihydro-2H-benzo[1,4]oxazin-6-yloxy]-pyrrolidin-1-yl}-(1-methyl-1H-imidazol-4-yl)-methanone]",1.88,0.076
"CCC(=O)N1CC[C@H](Oc2ccc3c(c2)N(c2ccc(S(C)(=O)=O)nc2)CCO3)C1 [Example A8, 1-{(S)-3-[4-(6-Methanesulfonyl-pyridin-3-yl)-3,4-dihydro-2H-benzo[1,4]oxazin-6-yloxy]-pyrrolidin-1-yl}-propan-1-one]",5.93,0.04

# Other lines, results leading:
IC50 (PI3K alpha) [µM],IC50 (PI3K delta) [µM],SMILES
0.538,0.013,"COc1ncc(N2CCOc3ccc(O[C@H]4CCN(C(=O)[C@@H]5CCN(C)C5)C4)cc32)cc1C#N [L, 2-Methoxy-5-{6-[(S)-1-((R)-1-methyl-pyrrolidine-3-carbonyl)-pyrrolidin-3-yloxy]-2,3-dihydro-benzo[1,4]oxazin-4-yl}-nicotinonitrile]"
0.41,0.014,"CCC(=O)N1CC[C@H](Oc2ccc3c(c2)N(c2cnc(OC)c(C#N)c2)CCO3)C1 [Example A9, 2-Methoxy-5-[6-((S)-1-propionyl-pyrrolidin-3-yloxy)-2,3-dihydro-benzo[1,4]oxazin-4-yl]-nicotinonitrile]"
1.14,0.03,"O=C(C1CCOCC1)N1CC[C@H](Oc2ccc3c(c2)N(c2ccc(C(F)(F)F)nc2)CCO3)C1 [Example A42, (Tetrahydro-pyran-4-yl)-{(S)-3-[4-(6-trifluoromethyl-pyridin-3-yl)-3,4-dihydro-2H-benzo[1,4]oxazin-6-yloxy]-pyrrolidin-1-yl}-methanone]"
0.556,< 0.003,"Cc1cc(N2CCOc3ccc(O[C@H]4CCN(C(=O)C5CCOC5)C4)cc32)cnc1S(C)(=O)=O (stereo partly drawn) [Example B52, {(S)-3-[4-(6-Methanesulfonyl-5-methyl-pyridin-3-yl)-3,4-dihydro-2H-benzo[1,4]oxazin-6-yloxy]-pyrrolidin-1-yl}-(tetrahydro-furan-3-yl)-methanone]"
> 9.1,7.08,"COc1ncc(N2CCOc3ccc(O[C@@H]4CON(C(=O)C5CCOCC5)C4)cc32)cc1C#N [Example D24, 2-Methoxy-5-{6-[(S)-2-(tetrahydro-pyran-4-carbonyl)-isoxazolidin-4-yloxy]-2,3-dihydro-benzo[1,4]oxazin-4-yl}-nicotinonitrile]"
0.56,0.003,"COc1ncc(N2CCOc3ccc(O[C@H]4CCN(C(=O)C5COCCO5)C4)cc32)cc1C#N (stereo partly drawn) [Example C24, 5-{6-[(S)-1-([1,4]Dioxane-2-carbonyl)-pyrrolidin-3-yloxy]-2,3-dihydro-benzo[1,4]oxazin-4-yl}-2-methoxy-nicotinonitrile]"
0.292,0.005,"CCC(=O)N1CC[C@H](Oc2ccc3c(c2)N(c2cnc(OC)c(C)c2)CCO3)C1 [Example A13, 1-{(S)-3-[4-(6-Methoxy-5-methyl-pyridin-3-yl)-3,4-dihydro-2H-benzo[1,4]oxazin-6-yloxy]-pyrrolidin-1-yl}-propan-1-one]"
0.531,0.016,"CCC(=O)N1CC[C@H](Oc2ccc3c(c2)N(c2cncc(S(=O)(=O)N4CCN(C)CC4)c2)CCO3)C1 [Example A28, 1-((S)-3-{4-[5-(4-Methyl-piperazine-1-sulfonyl)-pyridin-3-yl]-3,4-dihydro-2H-benzo[1,4]oxazin-6-yloxy}-pyrrolidin-1-yl)-propan-1-one]"
6.63,0.061,"CS(=O)(=O)c1ncc(N2CCOc3ccc(O[C@H]4CCN(C(=O)C5CCOCC5)C4)cc32)cc1F [Example B86, {(S)-3-[4-(5-Fluoro-6-methanesulfonyl-pyridin-3-yl)-3,4-dihydro-2H-benzo[1,4]oxazin-6-yloxy]-pyrrolidin-1-yl}-(tetrahydro-pyran-4-yl)-methanone]"
2.28,0.069,"CCC(=O)N1CC[C@H](Oc2ccc3c(c2)N(c2cnc(OC)c(F)c2)CCO3)C1 [Example A11, 1-{(S)-3-[4-(5-Fluoro-6-methoxy-pyridin-3-yl)-3,4-dihydro-2H-benzo[1,4]oxazin-6-yloxy]-pyrrolidin-1-yl}-propan-1-one]"
0.577,0.003,"COc1ncc(N2CCOc3cnc(O[C@H]4CCN(C(=O)C5CCOCC5)C4)cc32)cc1C#N [Example F4, 2-Methoxy-5-{7-[(S)-1-(tetrahydro-pyran-4-carbonyl)-pyrrolidin-3-yloxy]-2,3-dihydro-pyrido[3,4-b][1,4]oxazin-1-yl}-nicotinonitrile]"
0.848,0.011,"Cc1cc(N2CCOc3ccc(O[C@H]4CCN(C(=O)C5COCCO5)C4)cc32)cnc1S(C)(=O)=O (single isomer, unassigned) [Example H4]"
1.7,0.085,"COc1cncc(N2CCOc3ccc(O[C@H]4CCN(C(=O)C5CCOCC5)C4)cc32)c1 [Example A33, {(S)-3-[4-(5-Methoxy-pyridin-3-yl)-3,4-dihydro-2H-benzo[1,4]oxazin-6-yloxy]-pyrrolidin-1-yl}-(tetrahydro-pyran-4-yl)-methanone]"

# Reference: US9539260B2, “Dihydro-benzo-oxazine and dihydro-pyrido-oxazine derivatives” (Novartis AG, priority 2012, dated 2017)
